85 compounds from PubChem BioAssay AID2305 (GlaxoSmithKline (GSK), 2010) can be followed below.

The test system of this experiment is P. falciparum 3D7 growth, pLDH absorbance. In words: P. falciparum 3D7 growth inhibition, dose response, strain 3D7 (AID 2305).

Each structure is given as a SMILES string. pIC50: −log10 of the molar value.

For `Cc1noc(C)c1-c1cccc(CNCc2cccc(-c3csc(-c4nc5ccccc5[nH]4)c3)c2)c1`, the pIC50 was 6.59. As for `CNC(=O)c1ccccc1Nc1nc(Nc2cccc(CS(C)(=O)=O)c2)ncc1C`, the figure is 6.28; as for `O=C(Cn1c(CCc2cccc(F)c2F)nc(=O)c2ccccc21)N(Cc1ccc(-c2ccc(C(F)(F)F)cc2)cc1)C1CCN(C2=NCCS2)CC1`, 5.88; as for `Cc1ccc(-c2nc(N3CCN(C(=O)c4ccco4)CC3)c3ccccc3n2)cc1`, 6.01. For `O=C(c1cccc(-c2noc(C(F)(F)F)n2)c1)N1CCN(C(=O)c2ccc3cc[nH]c3c2)CC1`, the pIC50 is 6.96.

For `CCN(CC)CCN(Cc1ccc(-c2ccc(C(F)(F)F)cc2)cc1)C(=O)Cn1c(CCc2ccc(F)cc2)nc(=O)c2ccccc21`, the pIC50 is 5.97.

`CC[C@H](C)CNC(=O)c1cncc(-c2ccc(CNCCOc3ccccc3)cc2)c1` had a pIC50 of 5.95.

For the compound `Cc1ccc(NC(=O)c2ccc3ncccc3c2)cc1OC1CCN(CCC(C)C)C1` (stereo not given), the pIC50 was 6.46. `O=C(/C=C/c1ccc(Cl)c(Cl)c1)NCCCCCN1CC[C@H](NC(=O)c2sc3ccccc3c2Cl)C1` had a pIC50 of 6.09.

`O=C(Cn1c(CCc2cccc(F)c2F)cc(=O)c2ccccc21)N(CCN1CCCCC1)Cc1ccc(-c2ccc(C(F)(F)F)cc2)cc1` showed a pIC50 of 6.12. As for `Cc1ccc2c(c1)c(-c1ccccc1)c(-c1ccccc1)n2CC(O)CN1CCN(CC=Cc2ccccc2)CC1` (stereo not given), the figure is 6.11; as for `COc1ccc(O)cc1Cc1cnc2nc(N)nc(N)c2c1C`, 8.00.

Take `CN(Cc1ccc(NC(=O)NC2CCN(C(=O)/C=C/c3ccc(Cl)c(Cl)c3)CC2)cc1)C1CCOCC1`: the pIC50 is 6.06.

`NC(=O)c1ccc(NCC(=O)Nc2cccc(-c3cccc(-c4nc5ccc(F)cc5[nH]4)c3)c2)cc1` had a negative logarithm of the IC50 (pIC50) of 6.06. As for `Cc1ccc(CNC(=O)[C@H](CCCN)Nc2cc(C)nc(NCC3CCCCC3)n2)cc1`, the figure is 5.91; as for `CC(=O)Nc1ccc(CN(Cc2cccc(OC(C)(C)C)c2)Cc2ccc3c(c2)OCCO3)cc1`, 6.85.

The compound `Cc1cccc2[nH]c(-c3ccc(-c4ccc(NC(=O)CN5CCN(C)CC5)cc4)cc3)nc12` gave a pIC50 of 6.10. In turn, `O=C(NCCN1Cc2ccccc2C1=O)c1ccc(Oc2ccc(C(=O)NCCN3Cc4ccccc4C3=O)cc2)cc1` gave a pIC50 of 6.44.

`CCC(=O)Nc1ccc(C(O)CN2CCC3(C=Cc4ccccc4O3)CC2)cc1` (stereo not given) had a pIC50 of 5.92. The figure for `CCC(C)OC(=O)C1=C(C)NC2=C(C(=O)CC(c3ccc(OC)c(OC)c3)C2)C1c1ccc(C)o1` (stereo not given) is 6.05; for `COc1ccc2c(NN=Cc3ccncc3)cc(C)nc2c1` it is 6.09. The figure for `CCN(c1ccc(O)c(CN2CCCCC2)c1)c1ccc([N+](=O)[O-])cn1` is 6.05; for `Cc1ccc(-c2ccn(Cc3cccc(OCc4ccccc4)c3)n2)cn1` (tested in a mixture with another compound) it is 5.93; for `CCCCCc1cnc2nc(N)nc(N)c2c1C` it is 6.68. The figure for `COCCNc1nc(N2CCC(CNC(=O)c3ccc(-c4ccc(C(=O)N(C)C)cc4C)cc3)CC2)nc2cc(OC)c(OC)cc12` is 5.99; for `O=C(NCCc1ccc(F)cc1)c1ccc(N2CCN(c3ccncc3)CC2)nc1` it is 5.85. The compound `CCCCCCCc1c(C)[nH]c2cc(OC)ccc2c1=O` gave a pIC50 of 7.22. As for `Cc1c(C(=O)[C@@H]2C[C@H]2CN2CCC(N3CCCCC3)CC2)sc2ccccc12`, the figure is 5.99; as for `CC(C)n1ncc2c(C(=O)N3CCCc4ccccc43)cc(-c3ccccc3)nc21`, 6.22. As for `CCc1cn2c3c(cc(C(=O)N[C@@H](Cc4ccccc4)[C@H](O)CNC4CC4)cc13)N(CC)S(=O)(=O)CC2`, the pIC50 was 6.96. As for `Cc1ccc(C2(C)CC(C)(C)N(C(=O)COc3ccc4ccccc4c3)c3ccccc32)cc1` (stereo not given), the figure is 6.96; as for `CCCCCCCn1c(=O)c(C(=O)Nc2c(C)cccc2C)c(O)c2ccccc21`, 6.04; as for `C=CCc1cccc(CN2CCC(c3cc(=O)[nH]c(-c4ccccn4)n3)CC2)c1O`, 5.96. The figure for `N#Cc1ccc(OCCN(Cc2ccccc2C(F)(F)F)c2ccc(C#N)c(C(F)(F)F)c2)cc1` is 6.55; for `COc1ccc(CNCc2ccc(-c3cccc(-c4nc5ccc(C(F)(F)F)cc5[nH]4)c3)cc2)cc1` it is 6.82. As for `Cc1cc(NN=CC=Cc2ccccc2)c2ccccc2n1`, the figure is 6.12; as for `Cc1cccc2[nH]c(-c3ccc(-c4ccc(CN5CCC(CCN6CCCCC6)CC5)cc4)cc3)nc12`, 6.85; as for `O=S(=O)(c1cc(Cl)c(Cl)cc1Cl)N1CCCCC(c2ccc(C(F)(F)F)cc2)=N1`, 6.70. In the case of `CO/C(=C\C=C\c1cc2cc(Cl)c(Cl)cc2[nH]1)C(=O)NC1CCN(CCOc2ccccc2)CC1`, the pIC50 was 6.21. As for `Cc1[nH]c2ccccc2c1C1=CCN(C[C@H]2C[C@@H]2C(=O)c2ccccc2)CC1`, the pIC50 was 6.46.

Regarding `O=C(NCCN1CCCC1)c1cccc(Nc2nccc(Nc3ccc(Oc4ccccc4)cc3)n2)c1`, the pIC50 was 6.19. The figure for `COc1ccc(CN2CCC(N3CCc4cc(NC(=O)c5cc(C)on5)ccc43)C2)cc1Cl` (stereo not given) is 6.03. For the compound `O=C(NC1CCN(c2ccnc3cc(Cl)ccc23)C1)c1ccc(F)cc1` (stereo not given), the pIC50 was 6.72. Compound `CC(Cc1ccc(C(=O)Nc2ccc(CC(C)NCCc3cccc(Cl)c3)cc2)cc1)NCCc1ccc(C(F)(F)F)cc1` (stereo not given) gave a pIC50 of 6.24. With `CCOc1cccc(C(=O)Nc2nonc2-c2ccc(OC)c(OC)c2)c1`, the pIC50 is 5.99.

Turning to `O=C(Nc1ccc(Br)cc1)c1cc(Br)ccc1NS(=O)(=O)c1cc(C(F)(F)F)cc(C(F)(F)F)c1`, the pIC50 was 6.06. The figure for `COc1cc2nc(N(C)Cc3cc4c(Cl)cccc4s3)nc(N)c2cc1OC` is 6.02. `COc1ccc(-c2cc(-c3nc4ccc(C(=O)N5CCOCC5)cc4[nH]3)c(=O)n(C)c2)cc1OC`: the pIC50 is 6.07.

Compound `Cc1cc(F)ccc1-c1nc(N(C)CCN(C)C(=O)N(C)c2ccccc2)nc2c1ccc(=O)n2-c1c(F)cccc1F` had a pIC50 of 5.91.

With `CCc1nc2nc(C)cc(Nc3ccc4c(c3)OCCO4)n2n1`, the pIC50 was 5.89. As for `O=C(N[C@@H](Cc1ccccc1)C(=O)NCc1cccc(C(F)(F)F)c1)c1ccc(O)c(-c2ccc(Cl)c(Cl)c2)c1`, the figure is 6.15. The figure for `CCc1cc2c(Sc3nc4ccccc4[nH]3)ncnc2s1` is 6.09; for `Oc1ccc(CCCNc2nc(NCc3cccc4ccccc34)nc(N3CCCNCC3)n2)cc1` it is 6.00; for `CCCCCCOc1ccc(N2C(N)=NC(N)=NC2(C)C)cc1` it is 6.47. The compound `CN1CCCc2ccc(NC(=O)c3cnc(-c4ccccc4)cn3)cc21` showed a pIC50 of 6.04. The figure for `CCCC(C)Nc1nc(C)cc(N[C@@H](Cc2ccccc2)C(=O)NCCc2ccccc2)n1` (stereo not given in full) is 6.02; for `O=C(/C=C/c1ccc(Cl)c(Cl)c1)N1CCN(C(=O)Nc2ccc(F)c(Cl)c2)CC1` it is 6.14; for `c1ccc2[nH]c(-c3ccc(-c4ccc(CN5CCN(CCN6CCOCC6)CC5)cc4)cc3)nc2c1` it is 6.80. As for `Cc1cc(C)nc(-n2[nH]c(C)c(Cc3ccc(C(C)(C)C)cc3)c2=O)n1`, the figure is 6.00; as for `CCNc1cc(C(=O)N[C@@H](Cc2ccccc2)[C@H](O)CNC(C)(C)CCCC(C)C)cc(N2CCCCS2(=O)=O)c1`, 6.35; as for `N#CC(NC(=O)C=Cc1ccccc1)c1ccccc1` (stereo not given), 6.74. On to `Nc1c2nc(-c3c(F)cccc3Cl)[nH]c(=O)c2nc(=O)n1-c1ccccc1`, for which the pIC50 is 6.17. The figure for `CCc1cc(=O)[nH]c(-n2nc(C)cc2NC(=O)CC(c2ccccc2)c2ccccc2)n1` is 6.02; for `CCCCCn1c(Sc2ccc(C#N)c([N+](=O)[O-])c2)nnc1-c1ccccc1` it is 6.07; for `O=C(Nc1ccccc1)OCCOc1ccc(CC2SC(=O)NC2=O)cc1` (stereo not given) it is 6.43. In the case of `COc1cc(NCCCCNc2ccc(Cl)c(Cl)c2)nc2ccccc12`, the pIC50 was 6.28.

Turning to `c1ccc(CN2CCC(NCc3ccc(-c4ccc(CNC5CCCC5)cc4)cc3)CC2)cc1`, the pIC50 was 6.54. Compound `COc1ccccc1C1CC(c2ccc(Br)cc2)=NN1C(=O)c1ccccc1` (stereo not given) gave a pIC50 of 5.95. On to `COCc1nc(-c2ccccc2)nc(N2CCN(C(=O)NC(C)C)CC2)c1Cc1ccccc1F`, for which the pIC50 is 6.00.

`COc1ccc2nccc([C@@H](O)CN3CCC(NCc4ccc5nnsc5c4)CC3)c2c1`: the pIC50 was 6.15. Turning to `COc1ccc(CN2CCN(CCCCNC(=O)c3ccc(NC(=O)c4ccc(Cl)cc4)cc3)CC2)c(OC)c1`, the pIC50 was 6.05. As for `CCCCCN1CCCC(NS(=O)(=O)c2ccc(C(=O)Nc3cccc(C(F)(F)F)c3)cc2)C1` (stereo not given), the figure is 6.10. As for `COc1ccc(NC(=O)[C@H](Cc2ccccc2)Nc2cc(C)nc(NCCc3ccccc3OC)n2)cc1`, the figure is 6.28; as for `CCn1c(C)c(C)c2cc(C(=O)Nc3ccon3)ccc21`, 6.14; as for `COc1ccc(Nc2nc(C)cc(NCc3ccc(-c4c(C)noc4C)cc3)n2)cc1`, 6.08. As for `Cc1nc(-c2nc(NCCc3cnccn3)ncc2-c2ccsc2)sc1C`, the figure is 6.06. Compound `O=S(=O)(Nc1ccc(CCN2CCC(N3CCCCC3)CC2)cc1)c1ccc(Cl)cc1` had a pIC50 of 5.96.

For `COc1c(CN2CCCC2)cccc1-c1cc2c(-c3ccc(C(=O)O)c(C(C)C)c3)ccnc2[nH]1`, the negative-log IC50 (pIC50) was 6.36. As for `COc1cc(Cc2cnc(N)nc2N)ccc1OCc1ccc(F)c(F)c1`, the figure is 6.04; as for `Cc1ccc(NC(=O)c2cccc(N3CCN(c4ccncc4)CC3)c2)cc1F`, 5.89; as for `CC(C)(C)c1ccc(NC(=O)c2ccc(CN3CCCN(Cc4cccc(F)c4)CC3)cc2)cc1`, 5.95.

`COc1cccc(C2(C)CCN(CCCCNC(=O)c3ccc(NC(=O)c4ccc(Cl)cc4)cc3)CC2)c1` showed a pIC50 of 6.08.

In turn, `CCOC(=O)c1ccc(NC(=O)Nc2cccc(-c3cccc(-c4nc5c(C)cccc5[nH]4)c3)c2)cc1` had a pIC50 of 6.96. On to `CCc1cn2c3c(cc(C(=O)N[C@@H](Cc4cccc(Cl)c4)[C@H](O)CNC4CCOCC4)cc13)N(C)S(=O)(=O)CC2`, for which the pIC50 was 7.40.

Turning to `Cc1ccc(O)cc1Nc1ccnc2cc(-c3csc(CN4CCN(C)CC4)n3)ccc12`, the pIC50 is 6.22.

By pIC50 is commonly meant the negative decadic logarithm of the IC50, by convention in mol/L.
